From paper PMC12422966, “ACLY inhibition promotes tumour immunity and suppresses liver cancer” (Nature, 2025) come the findings set out here.

In this assay the target is T1, SLC27A2 (FATP2, ACSVL1) (Homo sapiens, UniProt O14975).
T1 construct: SLC27A2 (NM_003645, human tagged ORF clone) expressed in HEK293 cells
Kind of assay: LC–MS/MS detection of EVT0185-CoA in HEK293 cells overexpressing SLC27A2, […] EVT0185. It is filed as cell-based.

Regarding `CC(C)(CCCCc1ccc(CCCCC(C)(C)C(=O)O)cc1)C(=O)O` [EVT0185, 6-[4-(5-carboxy-5-methyl-hexyl)-phenyl]−2,2-dimethylhexanoic acid], the “LC-MS/MS detection of EVT0185-CoA in HEK293 cells overexpressing SLC27A2, 30 μM” value is “Incubation of HEK293 cells with EVT0185 followed by mass spectrometry analysis indicated that only cells expressing SLC27A2 generated the CoA thioester”.
